Numbers after ± are expanded uncertainties.
Key:
[1] = xn = mol fraction of the nth substance listed; details: 323.15 K; for viscosity / mass density: 101 kPa; for viscosity: Capillary tube (Ostwald / Ubbelohde) method
[2] = 323.15 K; for mass density / viscosity: 101.33 kPa, Liquid; for viscosity: Capillary tube (Ostwald / Ubbelohde) method

CCCO [propan-1-ol] + O
[1], Liquid
Details | mass density [kg/m3] | viscosity [mPa·s]
x2 = 0.05 | 782.94 ± 0.49 | 1.121 ± 0.007
x2 = 0.1 | 786.61 ± 0.49 | 1.127 ± 0.007
x2 = 0.2 | 794.62 ± 0.47 | 1.15 ± 0.007
x2 = 0.3 | 803.64 ± 0.45 | 1.18 ± 0.008
x2 = 0.4 | 814.4 ± 0.43 | 1.219 ± 0.008
x2 = 0.5 | 827.68 ± 0.41 | 1.26 ± 0.008
x2 = 0.6 | 844.41 ± 0.38 | 1.291 ± 0.008
x2 = 0.7 | 865.87 ± 0.35 | 1.305 ± 0.008
x2 = 0.8 | 894.61 ± 0.31 | 1.256 ± 0.008
x2 = 0.9 | 935.04 ± 0.25 | 1.036 ± 0.006
x2 = 0.95 | 959.71 ± 0.22 | 0.827 ± 0.005

[1], Liquid, Ring tensiometer
Details | surface tension liquid-gas [mN/m]
x2 = 0.05 | 21.55 ± 0.33
x2 = 0.1 | 21.68 ± 0.33
x2 = 0.2 | 21.93 ± 0.34
x2 = 0.3 | 22.29 ± 0.34
x2 = 0.4 | 22.68 ± 0.34
x2 = 0.5 | 23.06 ± 0.35
x2 = 0.6 | 23.42 ± 0.35
x2 = 0.7 | 23.65 ± 0.35
x2 = 0.8 | 24.12 ± 0.36
x2 = 0.9 | 25.27 ± 0.37
x2 = 0.92 | 26.37 ± 0.39
x2 = 0.95 | 29.58 ± 0.43
x2 = 0.98 | 44.44 ± 0.6

O [water]
Details | surface tension liquid-gas [mN/m]
[2], ring detachment method | 68.38 ± 0.04

CCCCOC(C)=O [butyl ethanoate]
Details | surface tension liquid-gas [mN/m]
[2], Ring tensiometer | 22.12 ± 0.06

[2]
Details | mass density [kg/m3] | viscosity [mPa·s]
– | 849.75 ± 0.4 | 0.502 ± 0.004

CCCO [propan-1-ol]
Details | surface tension liquid-gas [mN/m]
[2], Ring tensiometer | 21.36 ± 0.06

[2]
Details | mass density [kg/m3] | viscosity [mPa·s]
– | 779.3 ± 0.51 | 1.115 ± 0.007

CCCCOC(C)=O [butyl ethanoate] + CCCO
[1], Liquid
Details | mass density [kg/m3] | viscosity [mPa·s]
x1 = 0.1 | 790.07 ± 0.48 | 0.879 ± 0.006
x1 = 0.2 | 799.51 ± 0.47 | 0.747 ± 0.005
x1 = 0.3 | 807.87 ± 0.46 | 0.662 ± 0.005
x1 = 0.4 | 815.42 ± 0.45 | 0.604 ± 0.004
x1 = 0.5 | 822.21 ± 0.44 | 0.566 ± 0.004
x1 = 0.6 | 828.46 ± 0.43 | 0.538 ± 0.004
x1 = 0.7 | 834.3 ± 0.42 | 0.521 ± 0.004
x1 = 0.8 | 839.71 ± 0.41 | 0.508 ± 0.004
x1 = 0.9 | 844.84 ± 0.4 | 0.502 ± 0.004

[1], Liquid, Ring tensiometer
Details | surface tension liquid-gas [mN/m]
x1 = 0.1 | 21.56 ± 0.33
x1 = 0.2 | 21.72 ± 0.33
x1 = 0.3 | 21.84 ± 0.34
x1 = 0.4 | 21.97 ± 0.34
x1 = 0.5 | 22.05 ± 0.34
x1 = 0.6 | 22.12 ± 0.34
x1 = 0.7 | 22.17 ± 0.34
x1 = 0.8 | 22.2 ± 0.34
x1 = 0.9 | 22.18 ± 0.34

CCCCOC(C)=O [butyl ethanoate] + O
[1]
Details | interfacial tension [mN/m] | mass density [kg/m3] | surface tension liquid-gas [mN/m] | viscosity [mPa·s]
Liquid mixture 1, Ring tensiometer, x2 = 0.9998 | 14.2 ± 0.3 | – | – | –
Liquid mixture 2, Ring tensiometer, x2 = 0.1305 | – | – | 21.74 ± 0.43 | –
Liquid, x2 = 0.02 | – | 850.18 ± 0.4 | – | 0.503 ± 0.004
Liquid, x2 = 0.04 | – | 850.62 ± 0.39 | – | 0.504 ± 0.004
Liquid, x2 = 0.06 | – | 851.07 ± 0.39 | – | 0.506 ± 0.004
Liquid, x2 = 0.08 | – | 851.57 ± 0.39 | – | 0.507 ± 0.004

[1], Liquid, Ring tensiometer
Details | surface tension liquid-gas [mN/m]
x2 = 0.02 | 22.14 ± 0.34
x2 = 0.04 | 22.17 ± 0.34
x2 = 0.06 | 22.2 ± 0.34
x2 = 0.08 | 22.25 ± 0.34

— the NIST ThermoML archive (doi:10.1021/je900337a)
